Results as given in patent US10123533B2, “Nitrogen containing surfactants for agricultural use” (AKZO NOBEL CHEMICALS INTERNATIONAL B.V., priority 2009, dated 2018).

Legend:
[1] = test system: wheat; assay: Example 5 trial of glyphosate formulations on wheat; format: in vivo; settings: rate of 168 g ae/ha; glyphosate to surfactant ratio 3:1; 21DAT
Source text: FIG. 13 is a photo of wheat taken at 21 days after treatment with glyphosate alone, glyphosate with tallowamine-15EO, glyphosate with cocoamine-6EO betaine, and no glyphosate.
Cocoamine-6EO betaine was compared in the same trial with tallowamine-15EO as the positive control and the surfactant-free sample as negative control in glyphosate formulations. Glyphosate to surfactant ratio was 3:1.
This can be seen from the picture at FIG. 13, taken at 21DAT.

[2] = test system: morning glory (IPOHE) and winter wheat (TRZAW); assay: Example 2 green house trial of concentrated glyphosate samples, % control at 28 DAT; format: in vivo; settings: glyphosate:surfactant 13:1, 489 and 978 g ae/ha, vs glyphosate alone
Experimental: The concentrated glyphosate samples were diluted to two glyphosate rates and sprayed in a green house so that the final glyphosate rates of the spray solutions were 489 and 978 g ae/H. Three samples at two rates equals six treatments that were sprayed on each of two species, morning glory (IPOHE, a broad leaf week) and winter wheat (TRZAW, a narrow leaf grass). Two rates were employed, 978 g ae/H, and 16-30 at 489 g ae/ha.
Higher ratio means lower surfactant concentration. A ratio of 13:1 means the sample, at the same glyphosate concentration, has 4.3 times less surfactant than a sample with a ratio of 3:1.
Sample A (glyphosate with added tallowamine-15EO) served as a positive control. Sample B containing only glyphosate without added surfactant served as a negative control.
FIGS. 7-8 illustrates the % control results at 28 DAT.

[3] = Solubility tests of prior art betaines in concentrated glyphosate salt solutions; format: physicochemical
Source text: WO2000038523 (Huntsman, U.S. Pat. No. 6,500,784, U.S. Pat. No. 6,653,257, EP1139761) discloses an amphoteric surfactant with the structure RCONH(CH2)nN^+R^12CH2COO^− where R^1 is alkyl or hydroxyl alkyl group with C1 to C4 and n=2-4, and discloses a betaine with the structure R R^12N^+CH2COO^− where R^1 is alkyl or hydroxyl alkyl group with C1 to C4. The amphoterics disclosed there mainly functioned as a co-surfactant to solubilize a ether carboxylate in to concentrated glyphosate systems. In the context of the document, there was no mention of bioefficacy of betaines or other amphoteric surfactants by themselves. […] However, without proper testing of individual surfactant, it is not possible to determine whether the effect seen in the mixture of three surfactants comes from the claimed surfactant or the other two surfactants. Moreover, no actual bioefficacy data and especially no data are provided on the degree of “overall kill” provided in the absence of surfactants and in the presence of surfactants; without such data it is not possible to determine whether or not the claimed alkyl amido betaine was effective in enhancing herbicidal activity of glyphosate under the conditions of the test reported. This patent requires Na ion to be <0.035% for the glyphosate formulation to be stable. Moreover, it used only IPA-glyphosate as examples. […]

[4] = test system: morning glory and wheat; assay: Example 3 green house trial, % Control of glyphosate formulations; format: in vivo; settings: 930, 465 and 233 g ae/ha; 28 DAT; compared with glyphosate formulation without surfactant
Source text: FIG. 9 is a bar graph illustrating the % control results of applying glyphosate formulation containing oleylamphopolycarboxy glycinate, glyphosate formulation containing tallowamine-10EO, and glyphosate alone, each at 233 g ae/ha, 465 g ae/ha, and 930 g ae/ha to morning glory at 28 days after treatment.
FIG. 10 is a bar graph illustrating the % control results of applying glyphosate formulation containing oleylamphopolycarboxy glycinate, glyphosate formulation containing tallowamine-10EO, and glyphosate alone, each at 233 g ae/ha, 465 g ae/ha, and 930 g ae/ha to wheat at 28 days after treatment.
Glyphosate formulation containing oleylamphopolycarboxy glycinate (Na salt) was compared in a green house trial with glyphosate formulation containing tallowamine-10EO (as positive control) and glyphosate alone in terms of % Control. Three glyphosate rates were used, 930 g ae/ha, 465 gae/ha, and 233 g ae/ha.
The results are plotted in FIGS. 9-10.

[5] = test system: morning glory (IPOHE) and wheat (TRIAV); assay: Example 1 green house trial, overall statement on adjuvancy; format: in vivo; settings: glyphosate:surfactant ratio 6.7
Source text: (§1) Four glyphosate samples with various surfactants were sprayed on morning glory (IPOHE, a broad leaf week) and wheat (TRIAV, a narrow leaf grass) in a green house setting. The surfactants are designated in Table 1.
(§2) The glyphosate rates of the spray solutions were 186, 372, and 743 g ae/ha (gram acid equivalent per hectare). […] Higher ratio means lower surfactant concentration. A ratio of 6.7 means the sample, at the same glyphosate concentration, has 2.2 times less surfactant than a sample with a ratio of 3.
(§3) % Control ratings were conducted by an experienced person at 7, 14, 21, and 29 days after treatment (DAT). Digital pictures were also taken at the time of rating. Each % Control value was an average of 4 replicas.

[6] = test system: wheat (TRIAV, a narrow leaf grass); assay: Green house % Control of glyphosate samples with various surfactants (Example 1), wheat; format: in vivo; settings: WT
Source text: as §1, §2
(§4) Sample D served as a negative control, since it contained only glyphosate without added surfactant. Sample C served as a positive control since it is well known that tallowamine-15EO is an excellent surfactant to enhance glyphosate efficacy.
as §3

[7] = test system: morning glory (IPOHE, a broad leaf week); assay: Green house % Control of glyphosate samples with various surfactants (Example 1), morning glory; format: in vivo; settings: MG
Source text: as §1, §2, §4, §3

Compound: tallowamine-15EO
- control to wheat [1]: excellent control

Compound: O=C(O)CNCP(=O)(O)O [glyphosate sample without surfactant, glyphosate]
- control to wheat [1]: did not give much control

Compound: tallow diamine trimethyl di-betaine
- enhancement of glyphosate bioefficacy [2]: enhanced glyphosate bioefficacy even at very low rate

Compound: coco dimethylamidopropyl betaine
- amount of surfactant that could be dissolved ([3]; in a composition of 360 g ae/l potassium glyphosate): < 80 g/L

Compound: oleylamphopolycarboxy glycinate (Na salt)
- enhancement of glyphosate efficacy [4]: enhanced glyphosate efficacy

Compound: Ethoxylated cocoamine (6EO) betaine [cocoamine-6EO betaine]
- control to wheat [1]: excellent control

Compound: CCCCCCCCCCCCCCCCCC(=O)NCCC[N+](C)(C)CC(=O)[O-] [stearyl dimethylamidopropyl betaine]
- amount of surfactant that could be dissolved ([3]; in a composition of 51.3% potassium glyphosate (aqueous)): < 1.8%

Compound: Cocodiamine trimethyl betaines
- speed of glyphosate activity [5]: speeded up glyphosate activity
- adjuvancy for glyphosate ([5]; 186, 372, 743 g ae/ha): good adjuvancy for glyphosate even at very low use rate

Compound: CC(C)N.O=C(O)CNCP(=O)(O)O [Sample D, Glyphosate (isopropylamine salt)]
- % Control 7DAT ([6]; Glyph rate 186 g ae/h): 28%
- % Control 14 DAT ([6]; Glyph rate 186 g ae/h): 60%
- % Control 21DAT ([6]; Glyph rate 186 g ae/h): 80%
- % Control 29DAT ([6]; Glyph rate 186 g ae/h): 58%
- % Control 7DAT ([6]; Glyph rate 372 g ae/h): 58%
- % Control 14 DAT ([6]; Glyph rate 372 g ae/h): 85%
- % Control 21DAT ([6]; Glyph rate 372 g ae/h): 89%
- % Control 29DAT ([6]; Glyph rate 372 g ae/h): 89%
- % Control 7DAT ([6]; Glyph rate 743 g ae/h): 84%
- % Control 14 DAT ([6]; Glyph rate 743 g ae/h): 94%
- % Control 21DAT ([6]; Glyph rate 743 g ae/h): 98%
- % Control 29DAT ([6]; Glyph rate 743 g ae/h): 98%
- % Control 7DAT ([7]; Glyph rate 186 g ae/h, average of 4 replicas): 55%
- % Control 14 DAT ([7]; Glyph rate 186 g ae/h): 68%
- % Control 21DAT ([7]; Glyph rate 186 g ae/h): 79%
- % Control 29DAT ([7]; Glyph rate 186 g ae/h): 68%
- % Control 7DAT ([7]; Glyph rate 372 g ae/h): 86%
- % Control 14 DAT ([7]; Glyph rate 372 g ae/h): 89%
- % Control 21DAT ([7]; Glyph rate 372 g ae/h): 95%
- % Control 29DAT ([7]; Glyph rate 372 g ae/h): 93%
- % Control 7DAT ([7]; Glyph rate 743 g ae/h): 83%
- % Control 14 DAT ([7]; Glyph rate 743 g ae/h): 90%
- % Control 21DAT ([7]; Glyph rate 743 g ae/h): 94%
- % Control 29DAT ([7]; Glyph rate 743 g ae/h): 91%
